Where two headings read alike, the source gives them in different places.
Key:
[1] = Maximum tolerance dose in mice (Experiment 3); set-up: species or system male mice; settings: mouse, in vivo, ip
Protocol: As a result, the maximum tolerance doses of 1-[3-(4-acetamido-2-methoxyphenoxy)-n-propyl]-4-(3-fluorophenyl)-piperazine, 1-[3-(4-acetamido-2-methoxyphenoxy)-n-propyl]-4-(2-fluorophenyl)-piperazine and 1-[3-(4-ethoxycarbonylamino-2-methoxyphenoxy)-n-propyl]-4-phenyl-piperazine methanesulfonate were more than 300 mg/kg.

[2] = test system: intracranial pressure (cerebrospinal fluid pressure in the cisterna magna); experiment: Effect of i.v. injection of test compounds on intracranial pressure in rats (Experiment 1); assay type: in vivo, Male SD-rats; settings: for Change in intracranial pressure (%), time after administration of test compound 40 minutes / Change in intracranial pressure (%), time after administration of test compound 60 minutes / Change in intracranial pressure (%), time after administration of test compound 120 minutes / Change in intracranial pressure (%), time after administration of test compound 180 minutes: i.v. infusion 0.2 ml/kg/minute for 20 minutes; for Change in intracranial pressure (%), time after administration of test compound 40 minutes: baseline 100, control 106.4; for Change in intracranial pressure (%), time after administration of test compound 60 minutes: baseline 100, control 107.5; for Change in intracranial pressure (%), time after administration of test compound 120 minutes: baseline 100, control 114.4; for Change in intracranial pressure (%), time after administration of test compound 180 minutes: baseline 100, control 110.7
Protocol: (Effect of i.v. injection of test compounds on intracranial pressure in rats) Male SD-rats weighing 500 to 800 g (each group consisting of 5 rats) were anesthetized with urethane. A solution of a test compound in an aqueous 5 w/v % mannitol solution was infused via the femoral vein at a rate of 0.2 ml/kg/minute for 20 minutes (when the test compound was used in the form of free base, said solution was prepared by dissolving it in an aqueous 5 w/v % mannitol solution with the aid of 0.5 N hydrochloric acid). Intracranial pressure (i.e., cerebrospinal fluid pressure in the cisterna magna) was continuously monitored via a cannula inserted in the cisterna magna. The cannula was connected to a transducer, and recording were made on graph paper. The effect of the test compound on the intracranial pressure was estimated in terms of the increase or decrease in intracranial pressure, which was calculated in accordance with the following formula: [formula]

[3] = test system: apomorphine-induced cage climbing; experiment: Anti-apomorphine activity in mice (Experiment 2 (3)); assay type: in vivo, male mice; settings: Mus musculus, ip, apomorphine hydrochloride 2.5 mg/kg s.c., dose decreasing climbing mice by 50%
Protocol: (§1) (Inhibitory effect of test compound on central nervous system in mice)
(§2) Inhibitory effect of test compound on central nervous system was examined by the following methods.
A solution or suspension of a test compound in water or an aqueous carboxymethylcellulose solution was administered intraperitoneally to male mice weighing 18 to 20 g (each group consisting of 5 mice). Thirty minutes after administration of the test compound, apomorphine hydrochloride (2.5 mg/kg) was administered subcutaneously to the mice, and the number of the mice which could climb a cage was examined. The 50% effective dose (ED50) of the test compound was estimated in terms of dose which is necessary to decrease the number of the medicated mice which could climb the cage by 50% of the number of a control group (i.e., non-medicated mice) which could climb the cage.

[4] = test system: sodium hexobarbital-induced anesthesia; experiment: Effect on sodium hexobarbital-induced anesthesia in mice (Experiment 2 (2)); assay type: in vivo, male mice; settings: Mus musculus, ip, sodium hexobarbital 100 mg/kg i.p., dose prolonging sleeping time to twice control
Protocol: as §1, §2
A solution or suspension of a test compound in water or an aqueous carboxymethylcellulose solution was administered intraperitoneally to male mice weighing 18 to 20 g (each group consisting of 5 mice). Thirty minutes after intraperitoneal administration of the test compound, sodium hexobarbital (100 mg/kg) was administered intraperitoneally to the mice, and the sleeping time between the loss and recovery of righting reflex was measured. The 50% effective dose (ED50) of the test compound was estimated in terms of dose which is necessary to prolong the sleeping time of the medicated mice twice as long as that of a control group (i.e., non-medicated mice).

[5] = test system: spontaneous motor activity / central nervous system; experiment: Inhibitory effect on spontaneous motor activity in mice (Experiment 2 (1)); assay type: in vivo, male mice; settings: Mus musculus, ip, 0.5 h, i.p., 30 minutes after administration, dose decreasing motor activity by 50%
Protocol: as §1, §2
A solution or suspension of a test compound in water or an aqueous carboxymethylcellulose solution was administered intraperitoneally to male mice weighing 18 to 20 g (each group consisting of 5 mice). Thirty minutes after administration of the test compound, the spontaneous motor activity of the mice was measured with an animex activity meter for 5 minutes. The 50% effective dose (ED50) of the test compound was estimated in terms of dose which is necessary to decrease the motor activity of the medicated mice by 50% of that of a control group (i.e., non-medicated mice).

| SMILES | Change in intracranial pressure (%), time after administration of test compound 40 minutes [2] | Change in intracranial pressure (%), time after administration of test compound 60 minutes [2] | Change in intracranial pressure (%), time after administration of test compound 120 minutes [2] | Change in intracranial pressure (%), time after administration of test compound 180 minutes [2] | further results |
| --- | --- | --- | --- | --- | --- |
| COc1cc(NC(C)=O)ccc1OCCCN1CCN(c2cccc(F)c2)CC1 [Example 5, 1-[3-(4-acetamido-2-methoxyphenoxy)-n-propyl]-4-(3-fluorophenyl)-piperazine] |  |  |  |  | MTD at 72 h [1]: > 300 mg/kg; decrease in the intracranial pressure ([2]; femoral vein infusion, dose 1 mg/kg, 40 minutes after administration): about 27% |
| COc1cc(NC(C)=O)ccc1OCCCN1CCN(c2ccccc2F)CC1 [Example 7, 1-[3-(4-acetamido-2-methoxyphenoxy)-n-propyl]-4-(2-fluorophenyl)-piperazine] |  |  |  |  | MTD at 72 h [1]: > 300 mg/kg |
| CCOC(=O)Nc1ccc(OCCCN2CCN(c3ccccc3)CC2)c(OC)c1.CS(=O)(=O)O [Example 21 methanesulfonate, 1-[3-(4-ethoxycarbonylamino-2-methoxyphenoxy)-n-propyl]-4-phenyl-piperazine methanesulfonate] | 79.7% | 79.3% | 79.2% | 82.2% | MTD at 72 h ([1]; mice, i.p., observed for 72 hours, read-out: maximum tolerance dose): > 300 mg/kg |
| COc1cc(NC(C)=O)ccc1OCCCN1CCN(c2ccccc2F)CC1 [NO. 2 (Table 4)] |  |  |  |  | ED50 [3]: 2.8 mg/kg |
| COc1cc(NC(C)=O)ccc1OCCCCN1CCN(c2ccccc2F)CC1 [NO. 3 (Table 1)] | 86.6% | 91.9% | 85.7% | 84.6% |  |
| COc1cc(NC(C)=O)ccc1OCCCN1CCN(c2ccccc2F)CC1 [NO. 3 (Table 3)] |  |  |  |  | ED50 [4]: 1.3 mg/kg |
| CCOC(=O)Nc1ccc(OCCCN2CCN(c3ccccc3)CC2)c(OC)c1 [NO. 3 (Table 4)] |  |  |  |  | ED50 [3]: 3 mg/kg |
| CCNc1ccc(OCCCN2CCN(c3ccccc3)CC2)c(OC)c1.Cl [NO. 4 (Table 1), 1-[3-(4-ethylamino-2-methoxyphenoxy)-n-propyl]-4-phenyl-piperazine hydrochloride] | 83.9% | 81.1% | 86.8% | 91.3% |  |
| COc1cc(NC(C)=O)ccc1OCCCN1CCN(c2ccccc2F)CC1 [NO. 4 (Table 2)] |  |  |  |  | ED50 [5]: 0.5 mg/kg |
| COc1cc(N)ccc1OCCCN1CCN(c2ccccc2)CC1 [NO. 5 (Table 1)] | 79.1% | 77.0% | 75.0% | 75.6% |  |
| COc1cc(N)ccc1OCCCN1CCN(c2ccccc2)CC1 [NO. 5 (Table 2), 1-[3-(4-amino-2-methoxyphenoxy)-n-propyl]-4-phenyl-piperazine] |  |  |  |  | ED50 [5]: 0.7 mg/kg |
| COc1cc(NC(C)C(=O)O)ccc1OCCCN1CCN(c2ccccc2)CC1.Cl (stereo not drawn) [NO. 6 (Table 1), 1-{3-[4-(1-carboxyethylamino)-2-methoxyphenoxy]-n-propyl}-4-phenylpiperazine hydrochloride] | 81.5% | 86.2% | 96.2% | 99.0% |  |
| COc1cc(NC=O)ccc1OCCCN1CCN(c2ccccc2)CC1 [NO. 7 (Table 1), 1-[3-(4-formylamino-2-methoxphenoxy)-n-propyl]-4-phenyl-piperazine] | 84.1% | 83.5% | 83.5% | 81.9% |  |
| COc1cc(NC(=O)C(C)C)ccc1OCCCN1CCN(c2ccccc2)CC1 [NO. 8 (Table 1), 1-[3-(4-isobutyrylamino-2-methoxyphenoxy)-n-propyl]-4-phenyl-piperazine] | 83.3% | 85.4% | 85.1% | 87.1% |  |
| COc1cc(NC(=O)C(C)(C)C)ccc1OCCCN1CCN(c2ccccc2)CC1 [NO. 9 (Table 1), 1-[3-(4-t-butylcarbonylamino-2-methoxyphenoxy)-n-propyl]-4-phenyl-piperazine] | 84.1% | 84.9% | 84.9% | 87.4% |  |
| COc1cc(NC(=O)C2CC2)ccc1OCCCN1CCN(c2ccccc2)CC1 [NO. 10 (Table 1), 1-[3-(4-cyclopropylcarbonylamino-2-methoxyphenoxy)-n-propyl]-4-phenyl-piperazine] | 85.9% | 84.3% | 83.6% | 86.2% |  |
| COc1cc(NC(=O)C2CCCCC2)ccc1OCCCN1CCN(c2ccccc2)CC1 [NO. 11 (Table 1), 1-[3-(4-cyclohexylcarbonylamino-2-methoxyphenoxy)-n-propyl]-4-phenyl-piperazine] | 91.1% | 94.3% | 78.7% | 78.8% |  |
| COc1cc(NC(=O)C=C(C)C)ccc1OCCCN1CCN(c2ccccc2)CC1 [NO. 12 (Table 1), 1-{3-[4-((2-methyl-1-propenyl)carbonylamino)-2-methoxyphenoxy]-n-propyl}-4-phenylpiperazine] | 76.7% | 84.3% | 91.9% | 93.5% |  |
| COc1cc(NC(=O)OC(C)(C)C)ccc1OCCCN1CCN(c2ccccc2)CC1 [NO. 14 (Table 1), 1-[3-(4-t-butoxycarbonylamino-2-methoxyphenoxy)-n-propyl]-4-phenyl-piperazine] | 78.9% | 77.7% | 80.3% | 81.6% |  |
